The source made the active and inactive calls.
Tests used:
Assay type in all cases: functional
[1] = biological target: Mitochondrial peptide methionine sulfoxide reductase (Bos taurus, UniProt P54149); test: Absorbance-based biochemical high throughput dose response assay for activators of Methionine sulfoxide reductase A (MsrA).
[2] = viability loss in THP-1 monocytes – THP-1 cells, cytotoxicity control for Vif-APOBEC3G degradation inhibitor project, dose response (AID 1117359); details: THP-1
[3] = biological target: Genome polyprotein (dengue virus type 2, UniProt P29990); test: flavivirus cap methylation enzyme inhibition – biochemical, confirmation dose response, primary screen (AID 588689)
[4] = biological target: Phosphorylase b kinase gamma catalytic chain, liver/testis isoform (Homo sapiens, UniProt P15735);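 also: PHKG2 measured as one member of a kinome-wide kinase panel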
[5] = biological target: Cell division cycle 7-related protein kinase (Homo sapiens, UniProt O00311);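 also: value obtained from a kinome-wide kinase panel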
[6] = biological target: Dual specificity protein kinase CLK4 (Homo sapiens, UniProt Q9HAZ1)
Dual specificity protein kinase CLK4, sequence (Q9HAZ1 whole entry): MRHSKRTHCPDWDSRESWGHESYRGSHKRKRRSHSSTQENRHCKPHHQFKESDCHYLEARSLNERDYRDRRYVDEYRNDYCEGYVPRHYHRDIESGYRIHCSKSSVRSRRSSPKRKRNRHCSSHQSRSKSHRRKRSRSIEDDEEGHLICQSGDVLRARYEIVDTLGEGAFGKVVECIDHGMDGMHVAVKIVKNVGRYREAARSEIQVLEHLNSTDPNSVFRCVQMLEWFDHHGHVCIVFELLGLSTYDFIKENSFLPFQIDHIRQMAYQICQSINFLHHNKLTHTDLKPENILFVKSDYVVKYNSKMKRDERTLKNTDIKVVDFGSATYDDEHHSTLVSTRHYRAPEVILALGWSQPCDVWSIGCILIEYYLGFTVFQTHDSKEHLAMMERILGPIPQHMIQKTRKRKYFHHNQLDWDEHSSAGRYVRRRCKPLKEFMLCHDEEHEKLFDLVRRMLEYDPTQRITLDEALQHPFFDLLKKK

[7] = biological target: RAC-gamma serine/threonine-protein kinase (Homo sapiens, UniProt Q9Y243)
[8] = biological target: Testis-specific serine/threonine-protein kinase 1 (Homo sapiens, UniProt Q9BXA7)
Testis-specific serine/threonine-protein kinase 1, sequence (Q9BXA7 whole entry): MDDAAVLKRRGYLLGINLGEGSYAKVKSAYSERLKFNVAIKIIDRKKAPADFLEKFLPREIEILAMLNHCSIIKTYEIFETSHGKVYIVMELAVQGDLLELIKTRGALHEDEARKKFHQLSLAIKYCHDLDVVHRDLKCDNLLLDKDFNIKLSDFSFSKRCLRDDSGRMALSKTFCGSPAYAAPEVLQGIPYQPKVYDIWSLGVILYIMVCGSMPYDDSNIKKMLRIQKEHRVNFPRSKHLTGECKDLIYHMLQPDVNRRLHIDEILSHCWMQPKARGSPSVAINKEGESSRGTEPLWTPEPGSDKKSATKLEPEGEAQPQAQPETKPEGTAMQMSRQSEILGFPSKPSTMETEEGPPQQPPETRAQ

[9] = biological target: Protein kinase C gamma type (Homo sapiens, UniProt P05129)
[10] = biological target: Cyclin-dependent kinase 1 (Homo sapiens, UniProt P06493);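 also: Kinome-wide panel profiling, with the target listed as panel member CDC2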
Cyclin-dependent kinase 1, sequence (P06493 whole entry): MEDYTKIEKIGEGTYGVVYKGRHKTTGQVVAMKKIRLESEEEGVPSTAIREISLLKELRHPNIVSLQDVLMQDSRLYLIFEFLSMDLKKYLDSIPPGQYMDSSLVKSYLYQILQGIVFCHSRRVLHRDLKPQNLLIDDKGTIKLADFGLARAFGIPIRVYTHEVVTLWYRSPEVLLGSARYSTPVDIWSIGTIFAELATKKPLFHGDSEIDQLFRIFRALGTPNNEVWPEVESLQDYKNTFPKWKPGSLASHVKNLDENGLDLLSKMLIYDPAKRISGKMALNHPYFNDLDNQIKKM

[11] = biological target: cAMP-dependent protein kinase catalytic subunit alpha (Homo sapiens, UniProt P17612)
[12] = biological target: Serine/threonine-protein kinase pim-3 (Homo sapiens, UniProt Q86V86);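 also: value obtained as one member of a broad kinase panel profiling effort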
[13] = biological target: Vascular endothelial growth factor receptor 2 (Homo sapiens, UniProt P35968)
[14] = biological target: Serine/threonine-protein kinase TBK1 (Homo sapiens, UniProt Q9UHD2); test: Navigating the Kinome. Panel member name: TBK1
[15] = biological target: MAP kinase-activated protein kinase 3 (Homo sapiens, UniProt Q16644);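 also: value comes from a kinome-wide profiling panel in which MAPKAPK3 is one of the panel members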
[16] = biological target: Death-associated protein kinase 3 (Homo sapiens, UniProt O43293);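 also: measured as one member of a kinome-wide profiling panel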
[17] = biological target: Serine/threonine-protein kinase SIK2 (Homo sapiens, UniProt Q9H0K1); test: Navigating the Kinome. Panel member name: SIK2
[18] = biological target: Calcium/calmodulin-dependent protein kinase type 1 (Homo sapiens, UniProt Q14012)
Calcium/calmodulin-dependent protein kinase type 1, sequence (Q14012 whole entry): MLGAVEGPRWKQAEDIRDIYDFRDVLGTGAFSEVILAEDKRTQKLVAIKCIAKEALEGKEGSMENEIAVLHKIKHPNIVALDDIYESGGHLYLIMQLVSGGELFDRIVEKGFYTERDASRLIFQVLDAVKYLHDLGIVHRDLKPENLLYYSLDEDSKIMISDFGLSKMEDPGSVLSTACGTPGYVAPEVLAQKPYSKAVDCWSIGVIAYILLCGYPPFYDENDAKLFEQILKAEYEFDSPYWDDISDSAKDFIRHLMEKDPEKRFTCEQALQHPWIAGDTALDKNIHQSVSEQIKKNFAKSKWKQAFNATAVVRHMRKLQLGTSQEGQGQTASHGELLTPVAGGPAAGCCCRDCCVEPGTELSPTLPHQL

[19] = biological target: Cyclin-dependent kinase 2 (Homo sapiens, UniProt P24941);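 also: CDK2 measured as one member of a broad kinome profiling panel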
[20] = biological target: Homeodomain-interacting protein kinase 2 (Homo sapiens, UniProt Q9H2X6);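 also: measured within a kinome-wide kinase profiling panel, HIPK2 being one panel member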
Homeodomain-interacting protein kinase 2, sequence (Q9H2X6 whole entry): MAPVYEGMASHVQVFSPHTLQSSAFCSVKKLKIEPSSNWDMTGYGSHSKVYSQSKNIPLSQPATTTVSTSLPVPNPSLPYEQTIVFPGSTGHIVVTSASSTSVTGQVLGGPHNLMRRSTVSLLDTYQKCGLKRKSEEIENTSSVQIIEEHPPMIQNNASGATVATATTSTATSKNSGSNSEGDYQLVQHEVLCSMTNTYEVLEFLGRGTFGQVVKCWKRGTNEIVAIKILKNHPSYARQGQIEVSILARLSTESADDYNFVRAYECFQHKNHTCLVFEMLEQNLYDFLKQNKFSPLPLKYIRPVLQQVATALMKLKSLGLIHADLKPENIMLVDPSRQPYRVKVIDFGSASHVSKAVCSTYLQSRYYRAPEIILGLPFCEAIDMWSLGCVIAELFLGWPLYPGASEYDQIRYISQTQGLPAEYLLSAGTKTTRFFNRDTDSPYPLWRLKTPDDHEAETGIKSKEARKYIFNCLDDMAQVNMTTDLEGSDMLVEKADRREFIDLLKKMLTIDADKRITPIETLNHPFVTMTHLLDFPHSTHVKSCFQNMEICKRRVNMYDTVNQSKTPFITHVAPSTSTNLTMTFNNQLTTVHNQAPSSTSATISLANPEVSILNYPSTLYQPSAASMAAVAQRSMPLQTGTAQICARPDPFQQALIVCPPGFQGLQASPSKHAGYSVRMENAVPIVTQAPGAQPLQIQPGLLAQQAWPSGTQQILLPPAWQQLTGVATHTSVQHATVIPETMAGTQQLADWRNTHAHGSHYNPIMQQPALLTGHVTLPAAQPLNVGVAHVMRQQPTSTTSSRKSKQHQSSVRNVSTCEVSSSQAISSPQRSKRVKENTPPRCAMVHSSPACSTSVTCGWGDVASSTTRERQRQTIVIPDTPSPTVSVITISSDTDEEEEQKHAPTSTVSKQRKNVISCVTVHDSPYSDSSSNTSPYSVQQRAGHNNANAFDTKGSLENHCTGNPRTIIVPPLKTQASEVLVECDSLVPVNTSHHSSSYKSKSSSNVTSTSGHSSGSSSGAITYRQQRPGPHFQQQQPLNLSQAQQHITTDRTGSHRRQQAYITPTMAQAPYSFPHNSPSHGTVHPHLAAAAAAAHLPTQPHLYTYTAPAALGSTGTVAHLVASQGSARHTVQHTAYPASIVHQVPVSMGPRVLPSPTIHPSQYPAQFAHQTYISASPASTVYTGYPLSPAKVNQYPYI

[21] = biological target: Tyrosine-protein kinase ABL1 (Homo sapiens, UniProt P00519)
[22] = biological target: Protein kinase C delta type (Homo sapiens, UniProt Q05655)
[23] = biological target: Homeodomain-interacting protein kinase 4 (Homo sapiens, UniProt Q8NE63)
[24] = biological target: BDNF/NT-3 growth factors receptor (Homo sapiens, UniProt Q16620);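 also: NTRK2 measured as one member of a broad kinome-wide kinase profiling panel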
BDNF/NT-3 growth factors receptor, sequence (Q16620 whole entry): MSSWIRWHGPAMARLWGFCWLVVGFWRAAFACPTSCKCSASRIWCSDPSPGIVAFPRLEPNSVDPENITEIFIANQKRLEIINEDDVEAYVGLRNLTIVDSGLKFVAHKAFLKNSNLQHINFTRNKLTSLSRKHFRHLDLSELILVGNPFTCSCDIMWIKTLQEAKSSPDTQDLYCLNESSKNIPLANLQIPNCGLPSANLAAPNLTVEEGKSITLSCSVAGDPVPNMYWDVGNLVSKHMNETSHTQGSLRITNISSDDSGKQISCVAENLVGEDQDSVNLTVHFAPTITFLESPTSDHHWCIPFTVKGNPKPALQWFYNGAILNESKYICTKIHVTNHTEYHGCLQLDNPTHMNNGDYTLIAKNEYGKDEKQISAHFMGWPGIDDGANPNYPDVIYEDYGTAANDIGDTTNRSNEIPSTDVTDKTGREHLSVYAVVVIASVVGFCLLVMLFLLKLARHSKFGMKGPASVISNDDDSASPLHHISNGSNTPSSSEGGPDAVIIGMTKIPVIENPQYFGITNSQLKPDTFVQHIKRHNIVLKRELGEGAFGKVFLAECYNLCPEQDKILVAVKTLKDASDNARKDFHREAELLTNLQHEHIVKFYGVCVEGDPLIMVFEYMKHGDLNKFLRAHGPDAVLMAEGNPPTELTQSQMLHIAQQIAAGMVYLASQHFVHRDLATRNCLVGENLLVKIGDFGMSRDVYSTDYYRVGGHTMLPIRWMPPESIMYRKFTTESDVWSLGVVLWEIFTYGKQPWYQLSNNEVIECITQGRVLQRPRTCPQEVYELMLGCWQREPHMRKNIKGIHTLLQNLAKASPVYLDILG

[25] = biological target: MAP/microtubule affinity-regulating kinase 4 (Homo sapiens, UniProt Q96L34); test: Navigating the Kinome. Panel member name: MARK4
[26] = biological target: Tyrosine-protein kinase Blk (Homo sapiens, UniProt P51451);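 also: obtained as one member of a kinome-wide kinase assay panel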
Tyrosine-protein kinase Blk, sequence (P51451 whole entry): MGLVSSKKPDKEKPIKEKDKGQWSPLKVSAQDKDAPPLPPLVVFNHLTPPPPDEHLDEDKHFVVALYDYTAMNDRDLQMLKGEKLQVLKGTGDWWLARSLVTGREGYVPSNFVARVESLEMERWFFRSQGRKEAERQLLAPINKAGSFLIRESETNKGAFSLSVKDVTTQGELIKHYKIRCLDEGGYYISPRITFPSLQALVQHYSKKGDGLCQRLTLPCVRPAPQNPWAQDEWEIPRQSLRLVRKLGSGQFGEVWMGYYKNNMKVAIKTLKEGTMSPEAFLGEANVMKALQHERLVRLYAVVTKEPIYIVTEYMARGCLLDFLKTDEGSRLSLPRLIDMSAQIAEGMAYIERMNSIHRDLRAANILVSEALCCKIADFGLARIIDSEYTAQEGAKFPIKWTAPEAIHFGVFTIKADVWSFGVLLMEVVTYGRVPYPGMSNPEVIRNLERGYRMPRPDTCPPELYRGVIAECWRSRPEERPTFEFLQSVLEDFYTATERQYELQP

[27] = biological target: Serine/threonine-protein kinase pim-1 (Homo sapiens, UniProt P11309)
Serine/threonine-protein kinase pim-1, sequence (P11309 whole entry): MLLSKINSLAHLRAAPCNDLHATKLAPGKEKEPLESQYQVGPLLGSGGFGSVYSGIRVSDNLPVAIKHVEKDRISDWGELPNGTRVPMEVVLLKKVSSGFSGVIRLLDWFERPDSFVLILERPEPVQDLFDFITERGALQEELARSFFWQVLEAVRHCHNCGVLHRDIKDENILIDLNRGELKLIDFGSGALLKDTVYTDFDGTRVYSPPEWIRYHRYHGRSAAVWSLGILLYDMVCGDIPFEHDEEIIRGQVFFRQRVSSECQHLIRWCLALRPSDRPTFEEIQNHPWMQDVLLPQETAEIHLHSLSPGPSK

Mitochondrial peptide methionine sulfoxide reductase, sequence (P54149 whole entry): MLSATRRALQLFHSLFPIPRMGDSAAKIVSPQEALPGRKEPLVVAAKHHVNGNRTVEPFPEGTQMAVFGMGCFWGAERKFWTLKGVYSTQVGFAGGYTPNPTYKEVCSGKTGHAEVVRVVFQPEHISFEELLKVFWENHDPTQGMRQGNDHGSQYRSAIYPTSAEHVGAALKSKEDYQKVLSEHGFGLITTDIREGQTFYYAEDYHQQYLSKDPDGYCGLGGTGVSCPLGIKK

SMILES: O=C(COC(=O)c1ccc([N+](=O)[O-])s1)NCCc1ccccc1
- EC50 [1]: 22100 nM (inactive)

SMILES: COCC/N=c1\scc(-c2cccs2)n1/N=C/c1ccc(O)c(O)c1O
- CC50 [2]: 16500 nM (active)
- IC50 [3]: > 100000 nM (active)

SMILES: OC1CCC(Nc2cc(Cl)nc(-c3c[nH]c4ncccc34)n2)CC1 (configuration not stated)
- Ki [4]: > 5010 nM (inactive)
- Ki [5]: 1 nM (active)
- Ki [6]: 20 nM (active)
- Ki [7]: > 6310 nM (inactive)
- Ki [8]: > 1000 nM (inactive)
- Ki [9]: 251 nM (active)
- Ki [10]: 1000 nM (active)
- Ki [11]: 126 nM (active)
- Ki [12]: 1260 nM (active)
- Ki [13]: 1260 nM (active)
- Ki [14]: > 3160 nM (inactive)
- Ki [15]: > 10000 nM (inactive)
- Ki [16]: 316 nM (active)
- Ki [17]: 398 nM (active)
- Ki [18]: > 1580 nM (inactive)
- Ki [19]: 251 nM (active)
- Ki [20]: 79.4 nM (active)
- Ki [21]: > 631 nM (inactive)
- Ki [22]: 126 nM (active)
- Ki [23]: 1000 nM (active)
- Ki [24]: > 5010 nM (inactive)
- Ki [25]: 398 nM (active)
- Ki [26]: > 794 nM (inactive)
- Ki [27]: 1000 nM (active)

From ChEMBL document CHEMBL1201862, “PubChem BioAssay data set” (2004)
